Experimental data from ChEMBL document CHEMBL2390823, “Aryl uracil inhibitors of hepatitis C virus NS5B polymerase: synthesis and characterization of analogs with a fused 5,6-bicyclic ring motif” (Bioorg Med Chem Lett, 2013).

Columns and labels:
Hepatitis C virus [1] = experiment: Antiviral activity against Hepatitis C virus genotype 1b infected in human HuH7 cells in presence of 40% human plasma; assay type: functional, organism-based, Hepacivirus hominis; settings: Huh-7, Plasma
[2] = Inhibition of Hepatitis C virus genotype 1a NS5B polymerase; parameters: species or system Hepatitis C virus subtype 1a
Hepatitis C virus [3] = experiment: Antiviral activity against Hepatitis C virus genotype 1a infected in human HuH7 cells in presence of 5% fetal calf serum; assay type: functional, organism-based, Hepacivirus hominis; settings: subtype 1a, Huh-7
Hepatitis C virus [4] = experiment: Inhibition of Hepatitis C virus genotype 1b NS5B polymerase; parameters: species or system Hepatitis C virus subtype 1b
Hepatitis C virus [5] = experiment: Antiviral activity against Hepatitis C virus genotype 1b infected in human HuH7 cells in presence of 5% fetal calf serum; assay type: functional, organism-based, Hepacivirus hominis; settings: Huh-7
[6] = (§1) Half life in rat at 5 mg/kg, po; assay type: ADME, organism-based; parameters: dose 5 mg/kg, route oral; settings: in vivo
[7] = (§2) Tmax in rat at 5 mg/kg, po; assay type: ADME, organism-based; parameters: dose 5 mg/kg, route oral; settings: in vivo
[8] = (§3) Plasma clearance in rat at 5 mg/kg, iv; assay type: ADME, organism-based; parameters: dose 5 mg/kg, route intravenous; settings: plasma
[9] = (§4) Oral bioavailability in rat at 5 mg/kg; assay type: ADME, organism-based; settings: in vivo
[10] = (§5) AUC (0 to infinity) in rat at 5 mg/kg, po; assay type: ADME, organism-based, Plasma; parameters: dose 5 mg/kg, route oral, time infinity; settings: plasma
[11] = (§6) Cmax in rat at 5 mg/kg, po; assay type: ADME, organism-based; parameters: dose 5 mg/kg, route oral; settings: in vivo
[12] = Half life in rat at 5 mg/kg, iv; assay type: ADME, organism-based; parameters: dose 5 mg/kg, route intravenous; settings: in vivo
[13] = Effective permeability of the compound by PAMPA; assay type: ADME; settings: read-out: Peff
Rattus norvegicus [14] = experiment: as §1; assay type: ADME, organism-based; parameters: dose 5 mg/kg, route oral; settings: in vivo
Rattus norvegicus [15] = experiment: as §2; assay type: ADME, organism-based; parameters: dose 5 mg/kg, route oral; settings: in vivo
Rattus norvegicus [16] = experiment: as §3; assay type: ADME, organism-based; parameters: dose 5 mg/kg, route intravenous; settings: in vivo
Rattus norvegicus [17] = experiment: as §4; assay type: ADME, organism-based; settings: in vivo
Rattus norvegicus [18] = experiment: as §5; assay type: ADME, organism-based, Plasma; parameters: dose 5 mg/kg, route oral, time infinity; settings: in vivo
Rattus norvegicus [19] = experiment: as §6; assay type: ADME, organism-based; parameters: dose 5 mg/kg, route oral; settings: in vivo

Row | EC50 (Hepatitis C virus [1]) [nM] | IC50 [2] [nM] | EC50 (Hepatitis C virus [3]) [nM] | IC50 (Hepatitis C virus [4]) [nM] | EC50 (Hepatitis C virus [5]) [nM] | half-life [6] [h] | Tmax [7] [h] | clearance [8] [mL/min/kg] | bioavailability [9] [%] | AUC(0-inf) [10] [ng·h/mL] | Cmax [11] [ng/mL] | half-life [12] [h] | Papp [13] [×10⁻⁶ cm/s] | t1/2 (Rattus norvegicus [14]) [h] | Tmax (Rattus norvegicus [15]) [h] | CL (Rattus norvegicus [16]) [mL/min/kg] | F (Rattus norvegicus [17]) [%] | AUC (Rattus norvegicus [18]) [ng·h/mL] | Cmax (Rattus norvegicus [19]) [ng/mL] | Compound
1 | 260 | 9 | 240 | 21 | 22 |  |  |  |  |  |  |  |  |  |  |  |  |  |  | COc1c(-c2ccc3c(CNS(C)(=O)=O)coc3c2)cc(-n2ccc(=O)[nH]c2=O)cc1C(C)(C)C
2 | 560 | 16 | 480 | 41 | 89 | 2.4 | 0.25 | 10.2 | 62 | 5100 | 1010 | 2.3 |  |  |  |  |  |  |  | COc1c(-c2ccc3c(c2)CCC3(C)CNS(C)(=O)=O)cc(-n2ccc(=O)[nH]c2=O)cc1C(C)(C)C (centres undefined)
3 | 22 | 6 | 14 | 11 | 3 | 3 | 6.17 | 12.8 | 86 | 7200 | 660 | 1.9 | 5.43 |  |  |  |  |  |  | COc1c(-c2ccc3c(c2)CC=C3CNS(C)(=O)=O)cc(-n2ccc(=O)[nH]c2=O)cc1C(C)(C)C
4 | 50 | 7 | 4 | 20 | 100 |  |  |  |  |  |  |  |  |  |  |  |  |  |  | COc1c(-c2ccc3c(c2)CC=C3CN(C)S(C)(=O)=O)cc(-n2ccc(=O)[nH]c2=O)cc1C(C)(C)C
5 | > 1000 | 185 | 1000 | 215 | > 1000 |  |  |  |  |  |  |  | 4.06 |  |  |  |  |  |  | COc1c(-c2ccc3c(c2)CC=C3C(C)(C)NS(C)(=O)=O)cc(-n2ccc(=O)[nH]c2=O)cc1C(C)(C)C
6 | 1 | 3 | 2 | 3 | 1 | 3 | 2.5 | 19.8 | 18 | 880 | 120 | 2.8 | 0.47 |  |  |  |  |  |  | COc1c(-c2ccc3c(c2)CC/C3=N\NS(C)(=O)=O)cc(-n2ccc(=O)[nH]c2=O)cc1C(C)(C)C
7 | 950 | 33 | 140 | 47 | > 100 |  |  |  |  |  |  |  | 0.24 |  |  |  |  |  |  | COc1c(-c2ccc3c(c2)CCC3NNS(C)(=O)=O)cc(-n2ccc(=O)[nH]c2=O)cc1C(C)(C)C (centres undefined)
8 | 18 | 11 | 51 | 22 | 27 |  |  |  |  |  |  | 1.1 | 0.22 | 1 | 0.33 | 25.5 | 1.4 | 500 | 30 | COc1c(C(=O)Nc2ccc(NS(C)(=O)=O)cc2)cc(N2CCC(=O)NC2=O)cc1C(C)(C)C
9 |  | 540 | > 1000 | 510 | > 1000 |  |  |  |  |  |  |  |  |  |  |  |  |  |  | COc1c(-c2ccc3c(CNS(C)(=O)=O)noc3c2)cc(-n2ccc(=O)[nH]c2=O)cc1C(C)(C)C
10 | 46 | 5 | 27 | 10 | 3 | 3.2 | 0.5 | 4.5 | 41 | 9300 | 1410 | 3.6 | 0.81 |  |  |  |  |  |  | COc1c(-c2ccc3c(CNS(C)(=O)=O)csc3c2)cc(-n2ccc(=O)[nH]c2=O)cc1C(C)(C)C
11 |  | 19 | > 1000 | 45 | > 1000 |  |  |  |  |  |  |  | 1.4 |  |  |  |  |  |  | COc1c(-c2ccc3nc(NS(C)(=O)=O)sc3c2)cc(-n2ccc(=O)[nH]c2=O)cc1C(C)(C)C
12 | > 10000 | 180 | > 1000 | 245 | > 1000 |  |  |  |  |  |  |  | 0.81 |  |  |  |  |  |  | COc1c(-c2ccc3cc(CNS(C)(=O)=O)sc3c2)cc(-n2ccc(=O)[nH]c2=O)cc1C(C)(C)C
13 | 13 | 8 | 20 | 18 | 3 | 2.3 | 0.33 | 7.5 | 119 | 13500 | 2360 | 1.8 | 8.93 |  |  |  |  |  |  | COc1c(-c2ccc3c(c2)CCC3CNS(C)(=O)=O)cc(-n2ccc(=O)[nH]c2=O)cc1C(C)(C)C (centres undefined)
